Measured values: PMC6478823, “A suite of phenotypic assays to ensure pipeline diversity when prioritizing drug-like Cryptosporidium growth inhibitors” (Nature Communications, 2019)
pEC50: −log10 of the molar value. Several values for one entry are separate records, joined by “and”; a condition that tells them apart may be missing. Identical values can stand only once. Like-named read-outs stand apart in the source and are kept apart here.

Legend:
C. parvum [1] = assay: 48 h Cryptosporidium growth inhibition assay; assay type: cell-based, Cryptosporidium parvum; details: for EC90: compound added 3 h post-infection, read at 48 h; for 0 - 48 h V. villosa lectin (asexual): Mean % Inhibition (parasites): replicates 1-3 in separate columns
From the text: As a first step in developing specific Cryptosporidium mode of action assays, we conducted a series of light microscopy time-lapse and transmission electron microscopy (TEM) time course experiments in order to precisely define C. parvum development within the HCT-8 cell culture system. […] This synchronicity was exploited by modifying a previously developed high-content microscopy assay. These assay modifications enabled the evaluation of several key events within the life cycle: host cell invasion, intracellular replication, host cell egress and establishment of new parasitophorous vacuoles, and sexual differentiation. […] Since the methods all used automated liquid handling, imaging, and image analysis, the assay methods all incorporated nuclear staining to monitor host cell numbers and enable recognition of HCT-8 cell monolayer damage, for example as an artifact from a malfunctioning plate washer or from unanticipated cytotoxicity of the compounds.
Human ileocecal adenocarcinoma (HCT-8) cells were purchased from ATCC (catalog# CCL-244) and cultured in ATCC modified RPMI-1640 medium (Gibco, catalog# A10491–01), supplemented with 10% heat-inactivated fetal bovine serum (Sigma-Aldrich, catalog# 12306C) and 120 U/mL penicillin and 120 μg/mL streptomycin (Gibco, catalog# 15140-122) (culture media). […] For all experiments, HCT-8 cells between passages 9 and 39 were used. C. parvum (Iowa isolate) oocysts were purchased from Bunchgrass Farm (Deary, ID), stored at 4 °C and used within 5 months of collection from an infected calf. To induce excystation, oocysts were first treated with 10 mM hydrochloric acid for 10 min at 37 °C, spun at 14,000×g for 4.5 min at room temperature, treated with 2 mM sodium taurocholate for 10 min at 16 °C, spun as before, and resuspended in culture media for infection.
A modification of a previously reported immunofluorescence assay was used to determine the EC50 and EC90 of compounds[13]. HCT-8 cells were grown to ≥ 90% confluence in 384-well plates (Corning, catalog# 353962) and infected with 5500 oocysts per well after they were induced for excystation as described above. Different concentrations of compounds were added 3 h post-infection and plates were incubated for another 45 h in a 5% CO2 incubator at 37 °C. Wells were then washed 3 times with PBS containing 111 mM D-galactose (PBS-D-gal), fixed with 4% paraformaldehyde (PFA) in PBS for 15 min at room temperature, permeabilized with 0.25% Triton X-100 for 10 min at 37 °C, washed 3 times with PBS with 0.1% Tween 20, and blocked with 4% bovine serum albumin (BSA) in PBS for 2 h at 37 °C or 4 °C overnight. Parasitophorous vacuoles were stained with 1.33 µg/mL of fluorescein-labeled Vicia villosa lectin (Vector Laboratories, catalog# FL-1231) diluted in 1% BSA in PBS with 0.1% Tween 20 for 1 h at 37 °C, followed by addition of Hoechst 33258 (AnaSpec, catalog# AS-83219) at 0.09 mM diluted in water for another 15 min at 37 °C. Wells were then washed 5 times with PBS containing 0.1% Tween 20. A Nikon Eclipse Ti2000 epifluorescence microscope with an automated stage was programmed using NIS-Elements Advanced Research software (Nikon, USA) to focus on the center of each well and take a 3 × 3 or 6 × 6 composite image using an EXi blue fluorescence microscopy camera (QImaging, Canada) with a 20 × objective (NA = 0.45). Nuclei and parasite images were separately exported as.tif files and analyzed using macros developed on the ImageJ platform (National Institutes of Health)[13].

Cryptosporidium [2] = details: cited from earlier work
Cryptosporidium [3] = test system: Cryptosporidium; design: method as in Lee, et al. 2018. AAC; details: ref Lee, et al. 2018. AAC; cited from earlier work
C. parvum [4] = details: cited from earlier work; for activity in NSG mouse model: ref Jumani, et al. 2018. AAC.
C. parvum [5] = assay: NOD SCID gamma (NSG) mouse model of chronic cryptosporidiosis; assay type: in vivo; details: oral gavage, 4-day treatment course
From the text: It is feasible that Cryptosporidium is most susceptible to drug treatments that show the greatest activity in only one of the mode of action assays described above, which would complicate use of these assays for maintaining a diverse anticryptosporidial pipeline. Therefore, to further test the strategy of ensuring a mechanistically diverse pipeline of anticryptosporidials, it was critical to know that compounds belonging to different phenotypic effect clusters (as in Fig. 7) could work in vivo. For this, thirty-one of the thirty-nine compounds were tested in a mouse model of cryptosporidiosis. There is considerable variability in the in vivo efficacy of anticryptosporidials tested in different mouse models[15],[34]–[39], and it remains unknown which animal models will best predict drug efficacy in humans. […] The piperazine-based compound MMV665917, however, is efficacious in both the acute IFN-γ KO and chronic NSG mouse models. […] Given that the goal of this study was to determine if compounds belonging to different phenotypic clusters might be active in vivo, we assessed in vivo efficacy using the stringent NSG mouse model.
The NOD SCID gamma mouse model for treatment of established cryptosporidiosis was reported previously. […] Oocyst shedding in feces was monitored by qPCR for 18s rRNA gene with the primers Cp18s forward and Cp18s reverse. […]

cryptosporidiosis = test system: cryptosporidiosis; design: method as in PMID 17253532; details: cited from earlier work
Cryptosporidium [6] = test system: Cryptosporidium; design: method as in Gorla, et al. 2014. AAC.; details: ref Gorla, et al. 2014. AAC.; cited from earlier work
[7] = read-out: Regular 3 to 48 h assay in vitro EC90, C. parvum in HCT-8 cells
[8] = Cryptosporidium parvum, HCT-8, read-out: Regular 3 to 48 h assay in vitro EC90, C. parvum in HCT-8 cells
[9] = ref Love, et al. 2017. PLoS NTD.

**Q.** For CCOc1ccc2cc(-c3nn(CC4CCN(C)CC4)c4ncnc(N)c34)ccc2c1 [BKI-1294], which EC90 (C. parvum [1]; [7]) is on record?
**A.** The EC90 was 22.4 µM.

**Q.** What about the “anticryptosporidial activity in the acute IFN-γ knockout mouse infection model” value (Cryptosporidium [2]; ref Castellanos-Gonzalez, et al. 2013. JID. and Love, et al. 2017. PLoS NTD.) of the same molecule?
**A.** Its value is “previously demonstrated anticryptosporidial activity”.

**Q.** For CCOc1ccc2cc(-c3nn(CC4CCN(C)CC4)c4ncnc(N)c34)ccc2n1 [BKI-1369], which EC90 (C. parvum [1]; [7]) is on record?
**A.** The EC90 was 17.7 µM.

**Q.** What about the “anticryptosporidial efficacy in gnotobiotic piglet model” value (Cryptosporidium [3]) of the same molecule?
**A.** Its value is “previously demonstrated anticryptosporidial efficacy”.

**Q.** With CC(C)/N=c1\cc2n(-c3ccc(Cl)cc3)c3ccccc3nc-2cc1Nc1ccc(Cl)cc1 [Clofazimine] as the molecule, how does the EC90 (C. parvum [1]; [8]) read?
**A.** The EC90 was 19.6 µM.

**Q.** And the “efficacy in chronic NOD SCID gamma (NSG) mouse model” value (C. parvum [4])?
**A.** Its value is “not efficacious”.

**Q.** And the “activity in NOD SCID γ mouse model” value (C. parvum [4]; [9])?
**A.** The value was “inactive”.

**Q.** And the “efficacy in acute, self-resolving IFN-γ KO mouse model” value (Cryptosporidium [2])?
**A.** Its value is “efficacious”.

**Q.** And the “activity in IFN-γ knockout mouse model” value (Cryptosporidium [2]; [9])?
**A.** The value was “active”.

**Q.** With O=C(Nc1ccc(Cl)cc1)N1CCN(c2ccc3nncn3n2)CC1 [D-1] as the molecule, how does the “0 - 48 h V. villosa lectin (asexual): Mean % Inhibition (parasites)” value (C. parvum [1]; D-1 at log conc (µM) 0.00) read?
**A.** The value was -13.99% and -26.93% and 12.39%.

**Q.** What about the “0 - 48 h V. villosa lectin (asexual): Mean % Inhibition (parasites)” value (C. parvum [1]; D-1 at log conc (µM) 0.30) of the same molecule?
**A.** The value was 44.90% and 34.43% and 28.35%.

**Q.** And the “0 - 48 h V. villosa lectin (asexual): Mean % Inhibition (parasites)” value (C. parvum [1]; D-1 at log conc (µM) 0.48)?
**A.** The value was 62.14% and 71.97% and 62.62%.

**Q.** What about the “0 - 48 h V. villosa lectin (asexual): Mean % Inhibition (parasites)” value (C. parvum [1]; D-1 at log conc (µM) 0.60) of the same molecule?
**A.** Its value is 81.17% and 79.33% and 75.56%.

**Q.** And the “0 - 48 h V. villosa lectin (asexual): Mean % Inhibition (parasites)” value (C. parvum [1]; D-1 at log conc (µM) 0.85)?
**A.** The value was 91.46% and 90.48% and 90.58%.

**Q.** And the “0 - 48 h V. villosa lectin (asexual): Mean % Inhibition (parasites)” value (C. parvum [1]; D-1 at log conc (µM) 1.08)?
**A.** Its value is 93.34% and 92.97% and 93.35%.

**Q.** What about the “0 - 48 h V. villosa lectin (asexual): Mean % Inhibition (parasites)” value (C. parvum [1]; D-1 at log conc (µM) 1.40) of the same molecule?
**A.** Its value is 93.98% and 94.31% and 94.76%.

**Q.** And the “0 - 48 h V. villosa lectin (asexual): Mean % Inhibition (parasites)” value (C. parvum [1]; D-1 at log conc (µM) -0.70)?
**A.** The value was -20.95% and -21.90% and -17.53%.

**Q.** And the “0 - 48 h V. villosa lectin (asexual): Mean % Inhibition (parasites)” value (C. parvum [1]; D-1 at log conc (µM) -1.40)?
**A.** The value was -23.49% and -23.30% and -25.37%.

**Q.** And the pEC50 (C. parvum [1]; read-out: 0 − 48 h V. villosa lectin (asexual): EC50, asexual growth assay, first 48 h, range in brackets)?
**A.** The pEC50 was 5.68.

**Q.** And the EC90 (C. parvum [1]; [7])?
**A.** The EC90 was 5.1 µM.

**Q.** What about the “efficacy in chronic NSG mouse model” value (C. parvum [4]) of the same molecule?
**A.** The value was “efficacious”.

**Q.** And the “activity in NSG mouse model” value (C. parvum [4])?
**A.** Its value is “Active”.

**Q.** And the “efficacy in acute IFN-γ KO mouse model” value (Cryptosporidium [2])?
**A.** Its value is “efficacious”.

**Q.** What does the source list for CC(=O)Oc1ccccc1C(=O)Nc1ncc([N+](=O)[O-])s1 [Nitazoxanide]?
**A.** EC90 (C. parvum [1]; [8]): 3.52 µM; efficacy in the NSG mouse model (reduction in fecal oocyst shedding) (C. parvum [5]): no effect; efficacy in AIDS patients (cryptosporidiosis): equivalent to a placebo

**Q.** Which EC90 (C. parvum [1]; [7]) does the source give for CC(=NOCCN)c1cccc(C(C)(C)NC(=O)Nc2ccc(Cl)c(C(F)(F)F)c2)c1 [P257] here?
**A.** Its EC90 is 34.3 µM.

**Q.** What about the “efficacy in the acute IL-12 knockout mouse model of cryptosporidiosis” value (Cryptosporidium [6]) of the same molecule?
**A.** The value was “efficacious”.

**Q.** What does the source list for NC[C@@H]1O[C@H](O[C@H]2[C@@H](O)[C@H](O[C@@H]3[C@@H](O)[C@H](N)C[C@H](N)[C@H]3O[C@H]3O[C@H](CO)[C@@H](O)[C@H](O)[C@H]3N)O[C@@H]2CO)[C@H](N)[C@@H](O)[C@@H]1O [Paromomycin]?
**A.** EC90 (C. parvum [1]; [8]): 2390 µM; activity in NSG mouse model (C. parvum [4]): active
